# Values quoted from earlier work, collected in patent publication US20040180006A1, “Methods and compositions for blocking the calcium cascade” (priority 2003, published 2004).
# Read-outs that look alike come from different tables or passages of the source.
# What was measured:
# [1] = system: mast cell plasma membrane potential; settings: for effect on second (delayed) decrease of bis-oxonol fluorescence: induced by compound 48/80 or antigenic stimulation
# guinea pig trachea = settings: 10^-4 to 10^-3 M
# [2] = system: rat peritoneal mast cells
# [3] = system: rat basophilic leukemia cells (RBL 2H3); settings: RBL 2H3 cells stimulated by immunoglobulin E-antigen; read-out: concentration required to inhibit histamine secretion from RBL 2H3 cells, immunoglobulin E-antigen
Compound,effect on second (delayed) decrease of bis-oxonol fluorescence [1],IgE-dependent contraction of guinea pig trachea (guinea pig trachea),contraction of guinea pig trachea induced by endogenous histamine (guinea pig trachea),"IC50 ([2]; peritoneal cells stimulated by imunoglobulin E-antigen, read-out: IC50 of histamine secretion, imunoglobulin E-antigen) [µM]","IC50 ([2]; peritoneal cells stimulated by ionophore A23187, read-out: IC50 of histamine secretion, ionophore A23187) [µM]","IC50 ([2]; peritoneal cells stimulated by phorbol 12-myristate 13-acetate, read-out: IC50 of histamine secretion, phorbol 12-myristate 13-acetate) [µM]","IC50 ([2]; peritoneal cells stimulated by substance P, read-out: IC50 of histamine secretion, substance P) [µM]",effect on first (fast) decrease of bis-oxonol fluorescence ([1]; induced by compound 48/80),IC50 [3] [µM]
C[C@@H]1O[C@@H](O[C@H]2C[C@@H](O)[C@]3(CO)[C@H]4[C@H](O)C[C@]5(C)[C@@H](C6=CC(=O)OC6)CC[C@]5(O)[C@@H]4CC[C@]3(O)C2)[C@H](O)[C@H](O)[C@H]1O [ouabain],inhibited,–,–,–,–,–,–,–,–
zinc gluconate,did not alter,inhibited,unable to affect,18,1.6,1.9,5.4,inhibited,140
